In data set [1] the target is T1, human SERT (Homo sapiens, UniProt P31645).
T1 construct: expressed in transfected cells; host or cells: HEK-293 (HEK-hSERT cells)
As to the kind of experiment: 5-HT Transporter Inhibitory Activity Assay (Neurotransmitter transporter uptake assay kit). The format is cell-based. To be noted: HEK-293 cells expressing human SERT. On the procedure: The inhibitory effect of the compounds on the 5-HT transporter in HEK-293 cells expressing human SERT was tested using the Neurotransmitter transporter uptake assay kit (Molecular Devices product). The test was performed according to the kit instructions, using citalopram as a positive control. The specific procedure was as follows: a) HEK-hSERT cells were seeded at 20,000 cells/well in a 384-well plate and then incubated overnight at 37°C in an incubator. b) The following day, the compounds (test compounds and positive control) were diluted using DMSO from 20 mM DMSO solution to the working concentration. Each test compound and citalopram were transferred to a 384-well plate using a detection buffer containing 0.1% BSA. The initial test concentration of citalopram was 1 µM, diluted 3X. The initial test concentration of the test compounds was 10 µM, diluted 4X, with each concentration repeated twice. c) The cell culture 384-well plate was taken out from the incubator, the culture medium was aspirated from the wells, and 25 µL of the test compound solution was added per well. The cells were incubated at 37°C for 30 min. After incubation, 25 µL of a dye solution was added to each well and the cells were incubated at 37°C for 30 min. d) the fluorescence values were read on a Flexstation 3 and the data were analyzed using Graphpad Prism.

Data set [2] concerns the target T2, recombinant human 5-HT1A receptor (Homo sapiens, UniProt P08908).
T2 construct: expressed in transfected cells
T2 sequence (P08908 1-422): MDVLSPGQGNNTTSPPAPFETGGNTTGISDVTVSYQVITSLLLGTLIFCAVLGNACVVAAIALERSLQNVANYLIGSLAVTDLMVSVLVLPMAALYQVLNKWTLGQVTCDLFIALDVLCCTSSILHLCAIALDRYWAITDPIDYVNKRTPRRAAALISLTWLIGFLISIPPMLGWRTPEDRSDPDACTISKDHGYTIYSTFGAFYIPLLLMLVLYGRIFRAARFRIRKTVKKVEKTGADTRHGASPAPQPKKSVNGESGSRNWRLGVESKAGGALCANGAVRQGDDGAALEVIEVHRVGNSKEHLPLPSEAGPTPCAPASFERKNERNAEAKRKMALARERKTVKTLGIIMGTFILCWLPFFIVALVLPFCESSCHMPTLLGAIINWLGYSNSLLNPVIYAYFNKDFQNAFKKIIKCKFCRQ
As to the kind of experiment: 5-HT1A Receptor Agonist Activity Assay (LANCE cAMP, inhibition of cAMP production). The class given is cell-based. As to conditions: CHO-K1 cells expressing the recombinant human 5-HT1A receptor, read-out: 5-HT1A agonistic activity (EC50). On the procedure: The agonistic effect of the compounds on the 5-HT1A receptor was evaluated by testing their inhibitory effect on cAMP production in CHO-K1 cells. 8-OH-DPAT was used as a positive control. The specific procedures were as follows: a) The compounds (test compounds and positive control) were prepared to a stock concentration of 10 mM using DMSO, and Forskolin was prepared to a stock concentration of 10 mM. The initial test concentration of 8-OH-DPAT was 1 µM, diluted 3X. The initial test concentration of the test compounds was 0.1 µM, diluted 3X, and each concentration was repeated twice. 100 nL of the compounds and 10 nL of Forskolin were transferred to the test plate using an Echo, with a final DMSO concentration <1%. b) The stable 5-HT1A cell line was taken out from the incubator to observe the cell status. When the cell density reached 80%-90%, the culture medium was discarded and the cells were washed with 5 mL of DPBS. After discarding DPBS, 2 mL of trypsin was added, and the cells were incubated at 37 °C for 2-5 min. After adding 10 mL of complete culture medium, the cells were collected, which was centrifuged at 1000 rpm for 4 min, and the supernatant was discarded. […]

Data set [3] can be described thus: Mouse Pharmacokinetic Experiment (plasma and brain). The format is in vivo, Male ICR mice. As to conditions: for bioavailability: mouse, iv 0.3 mg/kg, po 1 mg/kg; for Cmax / AUC(0-t): oral (po) dose 1 mg/kg. The procedure: Animal: Male ICR mice. Animals were randomly assigned to the treatment group and fasted for 12 hours before administration.
Drug to be tested: The compounds were dissolved in solvent (0.5% CMC-Na). The intravenous (iv) dose was 0.3 mg/kg, with an administration volume of 5 ml/kg; the oral (po) dose was 1 mg/kg, with an administration volume of 10 mL/kg body weight.
Sample Collection and Bioanalysis: After administration, blood was collected from the orbital sinus of mice at 0.083, 0.25, 0.5, 1, 2, 4, 6, 8, and 24 hours (n=3 at each time point) and placed in EP tubes containing heparin sodium. Mice were euthanized immediately via vertebral dislocation after blood collection, and their brains were harvested at the corresponding time points. All samples were collected immediately, rapidly frozen, and stored at -70°C for later use.
Plasma samples were obtained by whole blood centrifugation. 10 µL of plasma was then mixed with 190 µL of internal standard solution (20 ng/mL metoprazor in acetonitrile containing 0.1% formic acid). After mixing, the mixture was centrifuged at 13000 rpm for 10 min. For each sample, 120 µL of the supernatant was collected, and 0.5-10 µL (depending on the sensitivity of the compound) was then taken for drug analysis using an appropriate liquid chromatography-tandem mass spectrometry (LC-MS/MS) method. Standards for each analyte were used for calibration and identification.
The brain tissue and extract were homogenized at a brain tissue:extract (50% acetonitrile-water) ratio = 1 (g): 8 (ml) using 5 3mm-magnetic beads in an OMNI Bead Ruptor 24 Elite homogenizer at 3.2 m/s for 2 min. The mixture was centrifuged at 4°C, 3000g for 3 min. 50 µL of supernatant was collected and added with 200 µL of internal standard solution (20 ng/mL dissolved in 80% acetonitrile-water). After mixing well, the mixture was centrifuged at 13000 rpm for 10 min. 120 µL of supernatant was collected for each sample. Then, 0.5-10 µL of the supernatant (depending on the sensitivity of the compound) was taken and analyzed using an appropriate LC-MS/MS method. Standards for each analyte were used for calibration and identification.
Data Analysis: Drug concentrations below the limit of quantitation (LLOQ) were recorded as zero. Pharmacokinetic data analysis was performed in PK Solver using non-compartmental, bolus intravenous injection, or extravascular administration analysis model. Data points below LLOQ were excluded from the analysis to improve the validity of t1/2 calculation.

Data set [4] is described as follows: Rat Pharmacokinetic Experiment. The format is in vivo, male SD rats. To be noted: for bioavailability: rat, iv 1 mg/kg, po 3 mg/kg; for AUC(0-t) / Cmax: rat plasma, oral (po) dose 3 mg/kg. The procedure: The compound of Example 2 was used in a pharmacokinetic experiment in rats (non-fasted male SD rats). The compound of the present invention was dissolved in a solvent (0.5% CMC-Na). The intravenous (iv) dose was 1 mg/kg, with an administration volume of 5 ml/kg; the oral (po) dose was 3 mg/kg, with an administration volume of 10 mL/kg body weight. Approximately 0.3 mL of blood samples were collected from the jugular vein of rats at the following time points: 0.083, 0.25, 0.5, 1, 2, 4, 6, 8, and 24 h (n=3 at each time point). The collected blood was stored under ice-cooling conditions. Plasma was rapidly separated by centrifugation, and a precipitant was added. The concentration of the test compound was quantified using LC-MS.

SMILES strings stand for the structures.

T1 sequence (P31645 whole entry): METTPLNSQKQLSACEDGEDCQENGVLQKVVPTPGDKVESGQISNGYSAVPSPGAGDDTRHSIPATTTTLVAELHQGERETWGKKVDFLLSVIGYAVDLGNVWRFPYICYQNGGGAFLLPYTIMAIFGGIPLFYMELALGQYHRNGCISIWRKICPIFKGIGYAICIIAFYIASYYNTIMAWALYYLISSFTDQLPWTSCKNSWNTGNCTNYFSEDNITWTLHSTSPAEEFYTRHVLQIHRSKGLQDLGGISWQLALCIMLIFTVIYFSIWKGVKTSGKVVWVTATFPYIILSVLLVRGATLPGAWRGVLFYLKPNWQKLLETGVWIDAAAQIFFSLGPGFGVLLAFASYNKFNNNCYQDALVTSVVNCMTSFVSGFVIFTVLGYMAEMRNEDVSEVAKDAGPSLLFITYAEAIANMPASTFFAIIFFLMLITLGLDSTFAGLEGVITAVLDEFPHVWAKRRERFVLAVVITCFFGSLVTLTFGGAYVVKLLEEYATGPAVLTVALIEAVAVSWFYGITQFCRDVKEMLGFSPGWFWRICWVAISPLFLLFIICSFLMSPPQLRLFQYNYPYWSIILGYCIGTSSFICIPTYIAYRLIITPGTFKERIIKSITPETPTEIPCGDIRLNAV

What is called IC50 is the concentration needed to halve the response being measured. `O=c1ccc2ccc(CCN3CCN(c4cc(F)cc5c4CCO5)CC3)cc2[nH]1` [Example 7, 7-(2-(4-(6-fluoro-2,3-dihydrobenzofuran-4-yl)piperazin-1-yl)ethyl)quinolin-2(1H)-one]: inhibition in data set [1] was half-maximal at 9 nM (IC50).
The same measure, in the same setting: with `[2H]C1([2H])Cc2ccc(CCN3CCN(c4cc(F)cc5c4CCO5)CC3)cc2NC1=O` [Example 22, 7-(2-(4-(6-fluoro-2,3-dihydrobenzofuran-4-yl)piperazin-1-yl)ethyl)-3,4-dihydroquinolin-2(1H)-one-3,3-d2] the figure was 12.4 nM; with `[2H]C1([2H])C(=O)Nc2cc(CCN3CCN(c4cc(F)cc5occc45)CC3)ccc2C1([2H])[2H]` [Example 43, 7-(2-(4-(6-fluorobenzofuran-4-yl)piperazin-1-yl)ethyl)-3,4-dihydroquinolin-2(1H)-one-3,3,4,4-d4], 7.4 nM.
In general, EC50 refers to the concentration at which the effect is half-maximal. `O=C1CCc2ccc(CCN3CCN(c4cc(F)cc5c4OCC5)CC3)cc2N1` [Example 5, 7-(2-(4-(5-fluoro-2,3-dihydrobenzofuran-7-yl)piperazin-1-yl)ethyl)-3,4-dihydroquinolin-2(1H)-one]: the EC50 in data set [2] amounted to 1.5 nM. In data set [1], inhibition was half-maximal at 13 nM (IC50).
Take `O=c1ccc2ccc(CCN3CCN(c4cc(F)cc5ccoc45)CC3)cc2[nH]1` [Example 3, 7-(2-(4-(5-fluorobenzofuran-7-yl)piperazin-1-yl)ethyl)quinolin-2(1H)-one]: the EC50 in data set [2] stood at 1.3 nM.
The same measure, in the same setting: to `[2H]C1([2H])CC(=O)Nc2cc(CCN3CCN(c4cc(F)cc5occc45)CC3)ccc21` [Example 41, 7-(2-(4-(6-fluorobenzofuran-4-yl)piperazin-1-yl)ethyl)-3,4-dihydroquinolin-2(1H)-one-4,4-d2] belongs 0.7 nM; to `O=c1ccc2ccc(CCN3CCN(c4cc(F)cc5ccsc45)CC3)cc2[nH]1` [Example 16, 7-(2-(4-(5-fluorobenzo[b]thiophene-7-yl)piperazin-1-yl)ethyl)quinolin-2(1H)-one], 0.5 nM.
The bioavailability is the share of a dose that reaches the circulation, judged against a reference dose that is usually intravenous. By Cmax is commonly meant the highest concentration seen after dosing. As usually defined, the AUC(0-t) is exposure summed from dosing to a finite time, without extrapolation to infinity. A high value points to high exposure. With `O=C1CCc2ccc(CCN3CCN(c4cc(F)cc5sccc45)CC3)cc2N1` [Reference compound, 7-(2-(4-(6-fluorobenzo[b]thiophene-4-yl)piperazin-1-yl)ethyl)-3,4-dihydroquinolin-2(1H)-one, reference compound], the concentration giving a half-maximal response (EC50) in data set [2] was 1 nM. In addition, the half-maximal inhibitory concentration (IC50) in data set [1] is 15 nM. The bioavailability in data set [3] (male, ICR, plasma) turned out to be 50%; in data set [4] (male, SD, plasma), 43%. Moreover, the Cmax in data set [3] (male, ICR, mouse brain tissue) amounted to 254 ng/g; in data set [3] (male, ICR, mouse plasma), 27.5 ng/mL; in data set [4] (male, SD) it was 280 ng/mL. Besides, the AUC(0-t) turned out to be 468 ng·h/mL in data set [3] (male, ICR, mouse plasma) and 1560 ng·h/mL in data set [4] (male, SD).
Take `O=C1CCc2ccc(CCN3CCN(c4cc(F)cc5occc45)CC3)cc2N1` [Example 1, 7-(2-(4-(6-fluorobenzofuran-4-yl)piperazin-1-yl)ethyl)-3,4-dihydroquinolin-2(1H)-one]: in data set [2], the EC50 is 0.5 nM. The compound further displayed an IC50 in data set [1] of 7.8 nM. In addition, the bioavailability in data set [3] (male, ICR, plasma) was 100%. For the same compound, in data set [3] (male, ICR, mouse brain tissue), the Cmax stood at 368 ng/g. Further, in data set [3] (male, ICR, mouse plasma), the AUC(0-t) worked out at 1170 ng·h/mL and the highest level (Cmax) was 68.4 ng/mL.
`O=C1CCc2ccc(CCN3CCN(c4cc(F)cc5c4CCO5)CC3)cc2N1` [Example 2, 7-(2-(4-(6-fluoro-2,3-dihydrobenzofuran-4-yl)piperazin-1-yl)ethyl)-3,4-dihydroquinolin-2(1H)-one]: the peak concentration (Cmax) in data set [3] (in vivo, mouse brain tissue) stood at 413 ng/g; in data set [3] (in vivo, mouse plasma), 72.8 ng/mL; in data set [4] (in vivo), 815 ng/mL. Moreover, the AUC(0-t) in data set [3] (in vivo, mouse plasma) amounted to 794 ng·h/mL; in data set [4] (in vivo), 5320 ng·h/mL. For the same compound, the bioavailability came out at 77% in data set [3] (in vivo) and 100% in data set [4] (in vivo).
`O=C1CCc2ccc(CCN3CCN(c4cc(F)cc5ccoc45)CC3)cc2N1` [Example 6, 7-(2-(4-(5-fluorobenzofuran-7-yl)piperazin-1-yl)ethyl)-3,4-dihydroquinolin-2(1H)-one] returned an IC50 in data set [1] of 12 nM.
As to `O=C1CCc2ccc(CCN3CCN(c4ccc(F)c5sccc45)CC3)cc2N1` [Example 12, 7-(2-(4-(7-fluorobenzo[b]thiophene-4-yl)piperazin-1-yl)ethyl)-3,4-dihydroquinolin-2(1H)-one], in data set [2], the EC50 is 0.8 nM.
On to `O=C1CCc2ccc(CCN3CCN(c4cc(F)cc5ccsc45)CC3)cc2N1` [Example 15, 7-(2-(4-(5-fluorobenzo[b]thiophene-7-yl)piperazin-1-yl)ethyl)-3,4-dihydroquinolin-2(1H)-one], for which the concentration giving a half-maximal response (EC50) in data set [2] stood at 0.5 nM. Also, in data set [1], the midpoint of inhibition, the IC50, lay at 26 nM.
Turning to `O=C1CCc2ccc(CCN3CCN(c4c(F)ccc5ccsc45)CC3)cc2N1` [Example 14, 7-(2-(4-(6-fluorobenzo[b]thiophene-7-yl)piperazin-1-yl)ethyl)-3,4-dihydroquinolin-2(1H)-one], the EC50 in data set [2] came out at 1 nM.
In data set [1], `O=C1CCc2ccc(CCN3CCN(c4cc(F)cc5c4OCO5)CC3)cc2N1` [Example 39, 7-(2-(4-(6-fluorobenzo[d][1,3]dioxol-4-yl)piperazin-1-yl)ethyl)-3,4-dihydroquinolin-2(1H)-one] had an IC50 of 10.6 nM.

For the origin of these results see patent publication EP4786467A1, “QUINOLINONE COMPOUND, PREPARATION METHOD THEREFOR AND USE THEREOF” (Vigonvita Life Sciences Co., Ltd., priority 2023, dated 2025).
